This is an account of results in paper PMC4601594, “An active site–tail interaction in the structure of hexahistidine-tagged Thermoplasma acidophilum citrate synthase” (Acta Crystallographica. Section F, Structural Biology …, 2015).

The target of data set [1] is T1, citrate synthase (TpCSH6) (Thermoplasma acidophilum, UniProt P21553).
T1 construct: gene gltA; full-length TpCS (lacking N-terminal Met) with C-terminal His6 tag (TpCSH6)
T1 sequence (P21553 2-385): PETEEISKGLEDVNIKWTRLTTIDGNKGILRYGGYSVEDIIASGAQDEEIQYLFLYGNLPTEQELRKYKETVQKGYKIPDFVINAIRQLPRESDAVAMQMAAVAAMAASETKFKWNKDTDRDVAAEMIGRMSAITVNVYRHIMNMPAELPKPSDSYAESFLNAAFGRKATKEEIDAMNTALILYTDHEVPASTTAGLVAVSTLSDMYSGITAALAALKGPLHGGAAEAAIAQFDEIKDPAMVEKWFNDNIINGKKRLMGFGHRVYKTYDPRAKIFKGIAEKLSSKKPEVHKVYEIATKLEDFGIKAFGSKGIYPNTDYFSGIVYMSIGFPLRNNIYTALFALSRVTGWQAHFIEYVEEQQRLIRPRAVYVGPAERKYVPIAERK
The data set can be described thus: fluorescence titration of the TpCSH6–OAA complex (CitMX formation); also competitive inhibition versus AcCoA, Ki =[…]. It is filed as binding.

Data set [2] deals with T2, citrate synthase (TpCSH6-H222Q) (Thermoplasma acidophilum, UniProt P21553, H223Q).
T2 construct: gene gltA; full-length TpCS with C-terminal His6 tag, H222Q mutant
T2 sequence (P21553 2-385 H223Q): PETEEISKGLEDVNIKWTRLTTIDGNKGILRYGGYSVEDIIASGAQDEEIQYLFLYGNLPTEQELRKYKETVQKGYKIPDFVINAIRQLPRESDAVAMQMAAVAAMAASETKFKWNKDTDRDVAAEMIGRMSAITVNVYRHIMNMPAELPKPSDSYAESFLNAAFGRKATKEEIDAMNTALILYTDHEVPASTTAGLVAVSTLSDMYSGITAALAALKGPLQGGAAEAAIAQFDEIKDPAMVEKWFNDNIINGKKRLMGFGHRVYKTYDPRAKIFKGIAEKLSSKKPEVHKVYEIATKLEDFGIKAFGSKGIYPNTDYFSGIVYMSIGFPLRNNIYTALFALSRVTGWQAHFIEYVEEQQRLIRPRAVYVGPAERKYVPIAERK
The data set is described as follows: fluorescence titration (Trp348 quenching). It is filed as binding.

Data set [3] deals with T1, citrate synthase (TpCSH6). The data set is described as follows: fluorescence titration (Trp348 quenching). It is filed as binding.
Substrate in data set [4]: CC(=O)SCCNC(=O)CCNC(=O)[C@H](O)C(C)(C)COP(=O)(O)OP(=O)(O)OC[C@H]1O[C@@H](n2cnc3c(N)ncnc32)[C@H](O)[C@@H]1OP(=O)(O)O
The data set is described as follows: purified protein. To be noted: oxaloacetate (co-substrate) AcCoA binding site (His222, Asp317).

Turning to `CC(=O)CCCNC(=O)CCNC(=O)[C@H](O)C(C)(C)COP(=O)(O)OP(=O)(O)OC[C@H]1O[C@@H](n2cnc3c(N)ncnc32)[C@H](O)[C@@H]1OP(=O)(O)O` [AcMX, dethiaacetyl-CoA], the Kd (in general, the concentration at which binding is half-saturated) in data set [1] is 1500 nM.

Turning to `O=C(O)CC(=O)C(=O)O` [OAA, oxaloacetate], the Kd in data set [2] was found to be 19000 nM; in data set [3], 760 nM.

B1: citrate synthase (TpCSH6) (Thermoplasma acidophilum DSM 1728) (protein)
chain: T1 sequence (P21553 2-385)
With B1, the Km (as a rule, the substrate concentration at which the rate is half of its maximum) in data set [4] came out at 3.0 µM.
